Reference: patent US20070142433A1, “Angiogenesis-affecting compounds and methods of use thereof” (priority 2004, published 2007)
Where a name gives a salt, the structure may show the parent alone. Read-outs that look alike come from different tables or passages of the source.

Legend:
[1] = test system: SMC; assay: Cell proliferation assay (crystal violet), SMC; type: cell-based; settings: 72 hours, OD 595 nm
Description: (§1) In order to further confirm the surprising results described above, the compounds were tested in a cell proliferation assay. Crystal violet was used to measure cell proliferation; this basic dye stains cell nuclei and provides a sensitive, rapid evaluation. Light absorption of unstained or destained cell layers is negligible, making it possible to perform cell number measurements in wells. Six cell types (HUVEC, HDMEC, SMC, Fibroblast, A375 and RENCA) were plated and treated with the compounds in a log2 titration for 72 hours. The optimal cell number for each cell type was determined and optical density (OD) was measured at 595 nm. Each data point was measured in quadruplicate. The assay was stopped after 72 hours and subsequently analyzed. The OD-value of the plated cells before addition of the compounds was subtracted from all OD-values obtained after treatment. The percentage in relation to control proliferation was then calculated. Negative values therefore represent a count of fewer cells than were plated. The IC50 is given below in Table 1. Results are shown as a percentage in relation to the control proliferation. The IC50 were calculated using GraphPad Prism software (GraphPad Software, Inc.). Perhexiline results are depicted graphically in FIGS. 4A-4C and Erythromycin results in FIGS. 5A-5C.

[2] = test system: Fibroblast; assay: Cell proliferation assay (crystal violet), Fibroblast; type: cell-based; settings: 72 hours, OD 595 nm
Description: as §1

[3] = test system: A375; assay: Cell proliferation assay (crystal violet), A375; type: cell-based; settings: Homo sapiens, A-375, 72 hours, OD 595 nm
Description: as §1

[4] = test system: RENCA; assay: Cell proliferation assay (crystal violet), RENCA; type: cell-based; settings: 72 hours, OD 595 nm
Description: as §1

[5] = test system: HDMEC; assay: Cytoviability assay (resazurin), HDMEC; type: cell-based; settings: 24 hours after treatment, read-out: IC50 cell viability HDMEC
Description: (§2) A cell viability assay based on cellular reduction of resazurin to the fluorescent product resorufin was performed. Viable cells can metabolize and reduce the dye, whereas dead cells rapidly lose the capacity to do so, making the increase in fluorescence directly proportional to the number of viable cells. The tested compounds were added in a log2 titration and viable cells were analyzed 24 hours after treatment. The fluorescence was determined at an excitation wavelength of 560 nm and an emission wavelength of 590 nm. The percentage of viable cells in relation to the untreated control proliferation was calculated. […] Perhexiline results are depicted graphically in FIGS. 6A-6C and Erythromycin results in FIGS. 7A-7C.

[6] = test system: SMC; assay: Cytoviability assay (resazurin), SMC; type: cell-based; settings: 24 hours after treatment, read-out: IC50 cell viability SMC
Description: as §2

[7] = test system: RENCA; assay: Cytoviability assay (resazurin), RENCA; type: cell-based; settings: 24 hours after treatment, read-out: IC50 cell viability RENCA
Description: as §2

[8] = test system: B16F10 cells; assay: Cell viability of B16F10 cells; type: cell-based; settings: Mus musculus, B16-F10; after 24 and 48 hours incubation
Description: as §2
Through the two aforementioned assays it was determined that RENCA cells are more sensitive when treated with Perhexiline than the other cell types in the proliferation assay and in the viability assay. Therefore, the B16F10 cells were subsequently tested. The B16F10 tumor model, like the RENCA model, is an orthotopic tumor model.

[9] = test system: HUVEC sprouting; assay: Spheroid-based 3D angiogenesis assay (IC50, alone or with VEGFR-2 inhibitor); type: cell-based, human; settings: Homo sapiens, HUVEC
Excerpt: Therefore, the assay was applied to test compounds alone or in combination with a VEGFR-2 inhibitor to address changes in IC50. […] The VEGFR-2 inhibitor was applied at a concentration close to the IC50.

[10] = test system: Alexander cells (PLC/PRF/5) subcutaneous tumor; assay: Hepato-Cellular Carcinoma Model (HCC) in vivo study, subcutaneous Alexander cells; design: species or system NMRI nu/nu mice
Description: Monolayers of Alexander cells can be grown in 85% Dulbecco's Modified Eagle's Medium (DMEM), 15% Fetal Bovine Serum (FBS), 4 mM L-glutamine, 100 units penicillinG/ml, and 100 μg of streptomycin-sulfate/ml. The cells can be cultured in a humidified atmosphere of 90% air and 10% carbon dioxide at 37° C. Media may preferably be changed every 4 days.
Six to eight week old female NMRI^−nu/nu mice could be utilized. The Alexander cells can be implanted in the left flank region of the mice, for example, by injecting 4×10^7 cells in 0.2 ml aliquots into the subcutaneous space of the left flank using a 29 G needle syringe. After inoculation the appearing subcutaneous tumours can be measured by callipering and multiplying the distances of all three dimensions.
Therapy can be initiated after the tumor size has reached a volume of approximately 100 mm^3 (day 1 of the study), and continue for about 21 days.
As shown, Group 1 would serve as control, where the animals would receive no further treatment after injection of Alexander cells.
After approximately 21 days of treatment, mice could be sacrificed and tumors collected and optionally stored appropriately at −80° C. For histological examination of the tumor vasculature, cryosections of the tissues (thickness of 5-10 μm) can be taken. For visualization of the blood vessels, immunohistochemical staining for CD 31 (PECAM-1) can be performed, and vessels counted microscopically using a defined magnification (×200).

For `C1CCC(C(CC2CCCCN2)C2CCCCC2)CC1` (stereo not drawn) [Perhexiline, Perhexiline maleate], the IC50 [1] was 14 µM, the IC50 [2] was 12 µM and the IC50 [3] was 25 µM. It also gave an IC50 [4] of 7.6 µM, an IC50 [5] of 8 µM and an IC50 [6] of 32 µM. For the same molecule, the IC50 [7] was 5 µM, the IC50 [8] was 10 µM and the IC50 ([9]; compound alone, read-out: IC50 3D angiogenesis assay without VEGFR-2 inhibitor) was 5.4 µM. The IC50 ([9]; read-out: IC50 in vitro 3D sprouting of HUVEC) was 1.5 µM, the “tumor growth compared to control” value ([10]; subcutaneous Alexander cell tumors in mice, about 21 days of treatment, FIGS. 28-30) was “reduced” and the vessel density ([10]; tumor vasculature, FIG. 36) was “significant effect on vessel density”.
